# Values quoted from earlier work, collected in patent US11033592B2, “Composition for the prevention and/or treatment of cardiovascular diseases” (priority 2016, dated 2021).
# Tested on: first occurrence of cardiovascular events
# Conditions: CRESTOR 20 mg versus placebo, P<0.00001
smiles,measurement,value
"CC(C)c1nc(N(C)S(C)(=O)=O)nc(-c2ccc(F)cc2)c1/C=C/[C@@H](O)C[C@@H](O)CC(=O)O [CRESTOR, rosuvastatin]",relative reduction in risk of a major cardiovascular event,44%
